According to US20210024545A1, “SUBSTITUTED DIAZAHETERO-BICYCLIC COMPOUNDS AND THEIR USE” (Bayer Aktiengesellschaft, priority 2016, published 2021):

Legend:
Type in all cases: cell-based
human TASK-3 [1] = target: T1, human TASK-3 (Homo sapiens, UniProt Q9NPC2); assay: Inhibition of recombinant TASK-3 in stably transfected CHO cells, KCl-induced depolarization, voltage-sensitive dye (B-2); set-up: expressed in transfected cells; host or cells: stably transfected CHO cells; conditions: depolarization induced by 40 mM potassium chloride, some mean values from multiple determinations
T1 sequence (Q9NPC2 whole entry): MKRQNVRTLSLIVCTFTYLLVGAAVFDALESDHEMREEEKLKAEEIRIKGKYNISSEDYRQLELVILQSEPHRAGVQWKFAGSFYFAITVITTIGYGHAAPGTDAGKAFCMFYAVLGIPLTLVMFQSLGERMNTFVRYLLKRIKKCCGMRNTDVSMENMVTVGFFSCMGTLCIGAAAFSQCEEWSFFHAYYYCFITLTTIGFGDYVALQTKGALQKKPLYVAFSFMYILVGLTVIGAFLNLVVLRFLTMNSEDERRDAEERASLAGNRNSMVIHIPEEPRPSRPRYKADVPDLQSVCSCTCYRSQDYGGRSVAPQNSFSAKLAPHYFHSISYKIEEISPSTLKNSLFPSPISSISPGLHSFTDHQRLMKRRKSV
In short: (§1)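 Stably transfected CHO cells loaded with a voltage-sensitive membrane potential dye. Depolarization was induced with 40 mM KCl, and compound inhibition of it was read by fluorescence. IC50 is the concentration blocking half of the KCl-induced depolarization; some values are means of multiple independent determinations.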

human TASK-3 [2] = target: T1, human TASK-3; assay: Two-electrode voltage clamp analysis of human TASK-3 channel in Xenopus laevis oocytes (B-1); set-up: expressed in transfected cells; host or cells: Xenopus laevis oocytes injected with cRNA; conditions: Xenopus laevis oocytes injected with TASK-3 cRNA, 21-22° C.
Protocol: (§2) B-1. In Vitro Electrophysiological Analysis of the Human TASK-1 and TASK-3 Channels via Two-Electrode Voltage Clamp Technique in Xenopus laevis Oocytes
(§3) Xenopus laevis oocytes were selected as described elsewhere by way of illustration [Decher et al., FEBS Lett. 492, 84-89 (2001)]. Subsequently, the oocytes were injected with 0.5-5 ng of a cRNA solution coding for TASK-1 or TASK-3. For the electrophysiological analysis of the channel proteins expressed in the oocytes, the two-electrode voltage clamp technique [Stühmer, Methods Enzymol. 207, 319-339 (1992)] was used. The measurements were conducted as described [Decher et al., FEBS Lett. 492, 84-89 (2001)] at room temperature (21-22° C.) using a Turbo TEC 10CD amplifier (NPI), recorded at 2 kHz and filtered with 0.4 kHz. Substance administration was performed using a gravitation-driven perfusion system. Here, the oocyte is located in a measuring chamber and exposed to the solution stream of 10 ml/min The level in the measuring chamber is monitored and regulated by sucking off the solution using a peristaltic pump.

human TASK-1 [3] = target: T2, human TASK-1 (Homo sapiens, UniProt O14649); assay: Inhibition of recombinant TASK-1 in stably transfected CHO cells, KCl-induced depolarization, voltage-sensitive dye (B-2); set-up: expressed in transfected cells; host or cells: stably transfected CHO cells; conditions: depolarization induced by 40 mM potassium chloride, some mean values from multiple determinations
T2 sequence (O14649 whole entry): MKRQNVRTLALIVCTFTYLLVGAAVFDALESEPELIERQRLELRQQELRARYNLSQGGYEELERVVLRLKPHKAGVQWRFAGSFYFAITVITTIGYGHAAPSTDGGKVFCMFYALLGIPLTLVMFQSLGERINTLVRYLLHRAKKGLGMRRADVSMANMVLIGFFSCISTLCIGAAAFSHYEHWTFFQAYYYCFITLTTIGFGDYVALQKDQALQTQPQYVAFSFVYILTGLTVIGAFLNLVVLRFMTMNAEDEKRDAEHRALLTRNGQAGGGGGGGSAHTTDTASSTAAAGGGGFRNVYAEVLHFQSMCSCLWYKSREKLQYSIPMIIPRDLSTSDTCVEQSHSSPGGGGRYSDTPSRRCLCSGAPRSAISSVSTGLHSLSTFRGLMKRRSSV
In short: as §1

human TASK-1 [4] = target: T2, human TASK-1; assay: Two-electrode voltage clamp analysis of human TASK-1 channel in Xenopus laevis oocytes (B-1); set-up: expressed in transfected cells; host or cells: Xenopus laevis oocytes injected with cRNA; conditions: Xenopus laevis oocytes injected with TASK-1 cRNA, 21-22° C.
Protocol: as §2, §3

human TASK-1 [5] = target: T2, human TASK-1; assay: Washout rate after binding to the human TASK-1 channel, two-electrode voltage clamp in Xenopus laevis oocytes (B-4); set-up: expressed in transfected cells; host or cells: Xenopus laevis oocytes injected with cRNA transcribed from the pSGEM vector; conditions: TASK-1 inhibited beforehand by about 40% at the concentration of Table 3 (30-80 nM); restoration of current recorded over at least one hour
Text: The washout rate is defined as the washout of a compound according to the invention from the TASK-1 channel in % h^−1, measured by means of electrophysiological analysis on TASK-1-expressing Xenopus laevis oocytes via the two-electrode voltage clamp technique according to the description in section B-4.
B-4. In Vitro Electrophysiological Analysis of the Washout Rate of Compounds After Binding to the Human TASK-1 Channel via Two-Electrode Voltage Clamp Technique in Xenopus laevis Oocytes
Xenopus laevis oocytes were obtained from animals that had been anaesthetized with tricaine. Ovaries were treated with collagenase (1 mg/ml, Worthington, type II), stored in OR2 solution (82.5 mM NaCl, 2 mM KC1, 1 mM MgCl2, 5 mM HEPES; pH 7.4) for 120 min and then kept in the ND96 standard solution (96 mM NaCl, 2 mM KC1, 1.8 mM CaCl2, 1 mM MgCl2, 5 mM HEPES; pH 7.5) with additional sodium pyruvate (275 mg/l), theophylline (90 mg/1) and gentamicin (50 mg/1) at 18° C. hTASK-1 and hTASK-3 were subcloned into the pSGEM vector, and cRNA was produced after linearization with NHEI and in vitro transcription with T7 polymerase. Oocytes were injected individually with 5-20 ng of cRNA solution that encodes hTASK-1. Standard two-electrode voltage clamp recordings [Stühmer, Methods Enzymol. 207, 319-339 (1992)] were conducted at room temperature (21-22° C.) with a Turbo-TEC-10CD amplifier (NPI) as described above [Decher et al., FEBS Lett. 492, 84-89 (2001)]. The measurement interval was 2 kHz, and the data were filtered at 0.4 kHz. Substances were applied in a gravity-driven manner via the bath solution, using ND96. In summary, Xenopus laevis oocytes were selected as described above, injected with TASK-1 cRNA and subjected to an electrophysiological analysis via the two-electrode voltage clamp technique.
The TASK-1 channels were inhibited beforehand by a value of about 40% by administration of one of the compounds of the invention. The concentrations shown in Table 3 below were established here, which had been ascertained beforehand by determining the IC50 values in question. Subsequently, the restoration of the TASK-1-related membrane current was recorded in the voltage clamp over at least one hour. This restoration is caused by the washout of the compound in question from the TASK-1 channel
At least 6 oocytes were examined for every compound. The voltage clamp measurements took a total of at least 1.5 hours (administration of the inhibitor plus at least one subsequent hour of washout measurement).

| SMILES | IC50 (human TASK-3 [1]) | IC50 (human TASK-3 [2]) | IC50 (human TASK-1 [3]) | IC50 (human TASK-1 [4]) | Washout rate (human TASK-1 [5]) |
| --- | --- | --- | --- | --- | --- |
| O=C(C1CCCO1)N1C2CC1CN(Cc1c(-c3ccc(Cl)cc3)nc3ccccn13)C2 (racemic) [Example 115] | 2400 nM | 186 ± 5.4 nM | 4240 nM | 22.8 ± 3.7 nM | – |
| COc1ccc(F)c(C(=O)N2CC3CCC2CN3Cc2c(-c3ccc(C(C)C)nc3)nc3ccccn23)n1 (single isomer, unassigned) [Example 126, (3-Fluoro-6-methoxypyridin-2-yl)(5-{[2-(6-isopropylpyridin-3-yl)imidazo[1,2-a]pyridin-3-yl]methyl}-2,5-diazabicyclo[2.2.2]oct-2-yl)methanone] | 713 nM | 714.2 ± 0.9 nM | 17900 nM | 127 ± 8.5 nM | – |
| COc1cccc(C(=O)N2C[C@@H]3CC[C@H]2CN3Cc2c(-c3ccc(Cl)cc3)nc3ccccn23)n1 (single isomer, unassigned; enantiomer 1) [Example 21] | 60 nM | 16.3 ± 0.9 nM | 240 nM | 27.3 ± 5.4 nM | 40 % h^−1 |
| COc1ccc(F)c(C(=O)N2CC3CCC2CN3Cc2c(-c3ccc(Cl)cn3)nc3ccccn23)n1 (single isomer, unassigned; enantiomer 1) [Example 24, (5-{[2-(5-Chloropyridin-2-yl)imidazo[1,2-a]pyridin-3-yl]methyl}-2,5-diazabicyclo[2.2.2]oct-2-yl)(3-fluoro-6-methoxypyridin-2-yl)methanone (enantiomer 1)] | 4.5 nM | 31.2 ± 5.8 nM | 140 nM | – | – |
| COc1cccc(C(=O)N2CC3CCC2CN3Cc2c(-c3ccc(Cl)cn3)nc3ccccn23)n1 (single isomer, unassigned; enantiomer 1) [Example 26, (−)-(5-{[2-(5-Chloropyridin-2-yl)imidazo[1,2-a]pyridin-3-yl]methyl}-2,5-diazabicyclo[2.2.2]oct-2-yl)(6-methoxypyridin-2-yl)methanone (enantiomer 1)] | 42 nM | 12 ± 3.3 nM | 690 nM | 54 ± 16.1 nM | 17 % h^−1 |
| COc1cccc(C(=O)N2C3COCC2CN(Cc2c(-c4ccc(Cl)cc4)nc4ccccn24)C3)n1 [Example 29, (7-{[2-(4-Chlorophenyl)imidazo[1,2-a]pyridin-3-yl]methyl}-3-oxa-7,9-diazabicyclo[3.3.1]non-9-yl)(6-methoxypyridin-2-yl)methanone] | 50 nM | – | 460 nM | – | 17 % h^−1 |
| COc1cccc(C(=O)N2C3CCC2CN(Cc2c(-c4ccc(Cl)cn4)nc4ccccn24)C3)n1 [Example 33, (3-{[2-(5-Chloropyridin-2-yl)imidazo[1,2-a]pyridin-3-yl]methyl}-3,8-diazabicyclo[3.2.1]oct-8-yl)(6-methoxypyridin-2-yl)methanone] | 26 nM | – | 140 nM | – | 55 % h^−1 |
| COc1cccc(C(=O)N2C[C@H]3CC[C@@H]2CN3Cc2c(-c3ccc(Cl)cc3)nc3ccccn23)n1 [Example 34] | 84 nM | 10.3 ± 0.9 nM | 855 nM | 18.6 ± 4.3 nM | – |
| O=C(C1CCCC1)N1CC2CCC(C1)N2Cc1c(-c2ccc(Cl)cc2)nc2ccccn12 [Example 86] | 126 nM | 58.4 ± 12.1 nM | 331 nM | 17.1 ± 3.5 nM | – |
| COc1cccc(C(=O)N2CC3CCC(C2)N3Cc2c(-c3ccc(Cl)cc3)nc3ccccn23)n1 [Example 92] | 29 nM | 5.9 ± 1.8 nM | 895 nM | 13.5 ± 1.2 nM | – |
| O=C(c1ccccc1F)N1C2CCC1CN(Cc1c(-c3ccc(Cl)cc3)nc3ccccn13)C2 [Example 102] | 56 nM | 4.3 ± 3.5 nM | 277 nM | 8.7 ± 3.6 nM | – |
| COc1cccc(C(=O)N2C3CCC2CN(Cc2c(-c4ccc(Cl)cc4)nc4ccccn24)C3)n1 [Example 104] | 32 nM | 4.2 ± 1 nM | 255 nM | 60.7 ± 12 nM | – |
| CC(C)N(C)C(=O)N1C2COCC1CN(Cc1c(-c3ccc(Cl)cc3)nc3ccccn13)C2 [Example 194, 7-{[2-(4-Chlorophenyl)imidazo[1,2-a]pyridin-3-yl]methyl}-N-isopropyl-N-methyl-3-oxa-7,9-diazabicyclo[3.3.1]nonane-9-carboxamide] | 290 nM | – | 3000 nM | – | – |
| CCOC(=O)N1C2COCC1CN(Cc1c(-c3ccc(Cl)cc3)nc3ccccn13)C2 [Example 195, Ethyl 7-{[2-(4-chlorophenyl)imidazo[1,2-a]pyridin-3-yl]methyl}-3-oxa-7,9-diazabicyclo[3.3.1]nonane-9-carboxylate] | 8.1 nM | – | 230 nM | – | – |
| O=C(OC1CCCC1)N1C2COCC1CN(Cc1c(-c3ccc(Cl)cc3)nc3ccccn13)C2 [Example 196, Cyclopentyl 7-{[2-(4-chlorophenyl)imidazo[1,2-a]pyridin-3-yl]methyl}-3-oxa-7,9-diazabicyclo[3.3.1]nonane-9-carboxylate] | 52 nM | – | 440 nM | – | – |
| CCCOC(=O)N1C2COCC1CN(Cc1c(-c3ccc(Cl)cc3)nc3ccccn13)C2 [Example 197, Propyl 7-{[2-(4-chlorophenyl)imidazo[1,2-a]pyridin-3-yl]methyl}-3-oxa-7,9-diazabicyclo[3.3.1]nonane-9-carboxylate] | 13 nM | – | 150 nM | – | – |
| O=C(N1CCCCC1)N1C2COCC1CN(Cc1c(-c3ccc(Cl)cc3)nc3ccccn13)C2 [Example 198, (7-{[2-(4-Chlorophenyl)imidazo[1,2-a]pyridin-3-yl]methyl}-3-oxa-7,9-diazabicyclo[3.3.1]non-9-yl)(piperidin-1-yl)methanone] | 60 nM | – | 810 nM | – | – |
